According to US20220151230A1, “SPECIFICALLY SUBSTITUTED 3-(2-HALOGEN-6-ALKYL-4-PROPINYLPHENYL)-3-PYRROLIN-2-ONES AND TO THE USE THEREOF AS HERBICIDES” (Bayer Aktiengesellschaft, priority 2019, published 2022):

What was measured:
Conditions in all cases: one-leaf stage, 80 g/ha, assessed visually after about 3 weeks vs untreated controls, 100% = plants have died
ALOMY = assay: Post-emergence herbicidal effect against ALOMY; type: in vivo, Alopecurus myosuroides
Summary of the method: (§1)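 Herbicidal action is rated visually in percent against untreated controls, where 100% means dead plants and 0% means no difference. Ratings come about 3 weeks after foliar spraying of one-leaf-stage plants with aqueous WP or EC preparations plus 0.2% wetting agent at 600 to 800 l/ha.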

AVEFA = assay: Post-emergence herbicidal effect against AVEFA; type: in vivo, Avena fatua
Summary of the method: as §1

DIGSA = assay: Post-emergence herbicidal effect against DIGSA; type: in vivo, Digitaria sanguinalis
Summary of the method: as §1

ECHCG = assay: Post-emergence herbicidal effect against ECHCG; type: in vivo, Echinochloa crus-galli
Summary of the method: as §1

LOLRI = assay: Post-emergence herbicidal effect against LOLRI; type: in vivo, Lolium rigidum
Summary of the method: as §1

SETVI = assay: Post-emergence herbicidal effect against SETVI; type: in vivo, Setaria viridis
Summary of the method: as §1

HORMU = assay: Post-emergence herbicidal effect against HORMU; type: in vivo, Hordeum murinum
Experimental: Seeds of monocotyledonous and dicotyledonous weed and crop plants are laid out in sandy loam soil in wood-fiber pots, covered with soil and cultivated in a greenhouse under good growth conditions. 2 to 3 weeks after sowing, the test plants are treated at the one-leaf stage. The compounds of the invention, formulated in the form of wettable powders (WP) or as emulsion concentrates (EC), are then sprayed onto the green parts of the plants as aqueous suspension or emulsion at a water application rate equating to 600 to 800 l/ha with addition of 0.2% wetting agent. After the test plants have been left to stand in the greenhouse under optimal growth conditions for about 3 weeks, the action of the preparations is assessed visually in comparison to untreated controls (herbicidal action in percent (%): 100% activity=the plants have died, 0% activity=like control plants).

Structure (SMILES) | Post-emergence action [%] against ALOMY (ALOMY) [%] | Post-emergence action [%] against AVEFA (AVEFA) [%] | Post-emergence action [%] against DIGSA (DIGSA) [%] | Post-emergence action [%] against ECHCG (ECHCG) [%] | Post-emergence action [%] against LOLRI (LOLRI) [%] | Post-emergence action [%] against SETVI (SETVI) [%] | Post-emergence action [%] against HORMU (HORMU) [%]
C=CCOC1CCC2(CC1)NC(=O)C(c1c(C)cc(C#CC)cc1Cl)=C2O (stereo not shown) [Example E7] | 100 | 80 | 100 | 100 | 100 | 100 | 90
CC#Cc1cc(C)c(C2=C(O)C3(CCC(OCC)CC3)NC2=O)c(Cl)c1 (stereo not shown) [Example E10] | 100 | 100 | 100 | 100 | 100 | 100 | 100
CC#Cc1cc(C)c(C2=C(O)C3(CCC(OC(C)C)CC3)NC2=O)c(Cl)c1 (stereo not shown) [Example E13] | 100 | 100 | 100 | 100 | 100 | 100 | 100
CC#Cc1cc(C)c(C2=C(O)C3(CCC(OC)CC3)NC2=O)c(Cl)c1 (stereo not shown) [Example E19] | 100 | 100 | 100 | 100 | 100 | 100 | 100
CC#Cc1cc(C)c(C2=C(OC(=O)OC)C3(CCC(OC)CC3)NC2=O)c(Cl)c1 (stereo not shown) [Example P10] | 100 | 100 | 100 | 100 | 100 | 100 | 100
CC#Cc1cc(C)c(C2=C(OC(=O)OCC)C3(CCC(OC)CC3)NC2=O)c(Cl)c1 (stereo not shown) [Example P11] | 100 | 100 | 100 | 100 | 100 | 100 | 90
CC#Cc1cc(C)c(C2=C(OC(=O)C(C)C)C3(CCC(OC)CC3)NC2=O)c(Cl)c1 (stereo not shown) [Example P12] | 100 | 100 | 100 | 100 | 100 | 100 | 100
CC#Cc1cc(C)c(C2=C(OC(=O)OCC)C3(CCC(OC(C)C)CC3)NC2=O)c(Cl)c1 (stereo not shown) [Example P15] | 100 | 100 | 100 | 100 | 100 | 100 | 90
CC#Cc1cc(C)c(C2=C(OC(=O)OCC)C3(CCC(OCC)CC3)NC2=O)c(Cl)c1 (stereo not shown) [Example P16] | 100 | 100 | 100 | 100 | 100 | 100 | 100
CC#Cc1cc(C)c(C2=C(OC(=O)OCC)C3(CCCC(OCCC)C3)NC2=O)c(Cl)c1 (stereo not shown) [Example Q5] | 100 | 100 | 100 | 100 | 100 | 100 | 100
